Test results: ChEMBL document CHEMBL3352758, “Structural Analysis of the Binding of Type I, I1/2, and II Inhibitors to Eph Tyrosine Kinases” (ACS Med Chem Lett, 2015); call rule not given here
pIC50: −log10 of the molar value.

Biological target: T1, Ephrin type-B receptor 4 (Homo sapiens, UniProt P54760)
T1 sequence (P54760 whole entry): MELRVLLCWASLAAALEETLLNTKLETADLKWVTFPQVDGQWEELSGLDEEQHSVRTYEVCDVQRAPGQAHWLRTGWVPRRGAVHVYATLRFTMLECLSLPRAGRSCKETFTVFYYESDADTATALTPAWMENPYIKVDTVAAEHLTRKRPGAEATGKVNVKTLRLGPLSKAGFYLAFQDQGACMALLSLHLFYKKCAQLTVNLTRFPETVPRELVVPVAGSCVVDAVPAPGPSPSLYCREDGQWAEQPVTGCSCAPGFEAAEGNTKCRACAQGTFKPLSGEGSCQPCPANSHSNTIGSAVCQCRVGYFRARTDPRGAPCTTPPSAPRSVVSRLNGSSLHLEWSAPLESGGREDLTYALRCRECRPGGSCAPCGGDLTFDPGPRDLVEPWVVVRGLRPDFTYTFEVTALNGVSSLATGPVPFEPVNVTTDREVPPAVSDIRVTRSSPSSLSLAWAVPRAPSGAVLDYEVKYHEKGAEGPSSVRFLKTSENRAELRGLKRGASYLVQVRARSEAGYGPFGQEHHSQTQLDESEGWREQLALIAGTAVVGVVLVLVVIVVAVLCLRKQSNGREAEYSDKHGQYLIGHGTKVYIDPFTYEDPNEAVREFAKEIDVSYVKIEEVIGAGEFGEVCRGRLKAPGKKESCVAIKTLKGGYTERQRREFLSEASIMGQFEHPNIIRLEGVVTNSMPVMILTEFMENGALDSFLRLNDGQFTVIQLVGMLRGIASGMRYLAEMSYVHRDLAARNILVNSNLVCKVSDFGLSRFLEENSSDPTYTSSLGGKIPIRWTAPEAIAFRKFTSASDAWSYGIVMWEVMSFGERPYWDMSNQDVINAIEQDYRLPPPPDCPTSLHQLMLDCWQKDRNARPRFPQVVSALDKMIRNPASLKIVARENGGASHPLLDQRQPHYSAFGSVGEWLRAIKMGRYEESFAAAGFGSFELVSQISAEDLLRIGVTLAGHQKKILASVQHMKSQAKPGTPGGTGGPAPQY
Test: Inhibition of EphB4 (unknown origin) by FRET-based enzymatic assay in presence of 30 uM ATP

pIC50 (read-out: IC50)	Structure (SMILES)	IC50
–	Cc1ccc(-n2nc(C(C)(C)C)cc2NC(=O)Nc2ccc(OCCN3CCOCC3)c3ccccc23)cc1 [DORAMAPIMOD]	Not Active
5.10	Cc1ccc(-c2csc(NC(=O)CCCC(=O)O)c2C(N)=O)cc1C	–
